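Results reflect a 48-hour exposure of cells in 96-well plates to compound at five concentrations. GI50 marks 50% less growth. The concentration for full growth arrest is given as TGI.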
Legend:
Test in all cases: inhibition of tumour cell growth, NCI panel, 48 h
BT-549 breast = tested on: BT-549 breast
SNB-75 CNS = tested on: SNB-75 CNS
NCI-H460 lung = tested on: NCI-H460 lung
NCI-H522 lung = tested on: NCI-H522 lung
COLO 205 colon = tested on: COLO 205 colon
ACHN renal = tested on: ACHN renal
NCI-H23 lung = tested on: NCI-H23 lung
SW-620 colon = tested on: SW-620 colon
UACC-62 melanoma = tested on: UACC-62 melanoma
HS 578T breast = tested on: HS 578T breast
NCI-H226 lung = tested on: NCI-H226 lung
DU-145 prostate = tested on: DU-145 prostate
IGROV1 ovarian = tested on: IGROV1 ovarian
EKVX NSCLC = tested on: EKVX NSCLC
OVCAR-5 ovarian = tested on: OVCAR-5 ovarian
OVCAR-3 ovarian = tested on: OVCAR-3 ovarian
HL-60(TB) leukemia = tested on: HL-60(TB) leukemia
TK-10 renal = tested on: TK-10 renal
NCI/ADR-RES ovarian = tested on: NCI/ADR-RES ovarian
A498 renal = tested on: A498 renal
MDA-MB-231 breast = tested on: MDA-MB-231 breast
MCF7 breast = tested on: MCF7 breast
SF-539 CNS = tested on: SF-539 CNS
LOX IMVI melanoma = tested on: LOX IMVI melanoma
U251 CNS = tested on: U251 CNS
SR leukemia = tested on: SR leukemia
RXF 393 renal = tested on: RXF 393 renal
HT29 colon = tested on: HT29 colon
PC-3 prostate = tested on: PC-3 prostate
HCT-15 colon = tested on: HCT-15 colon
SNB-19 CNS = tested on: SNB-19 CNS
OVCAR-4 ovarian = tested on: OVCAR-4 ovarian
HCC-2998 colon = tested on: HCC-2998 colon
CAKI-1 renal = tested on: CAKI-1 renal
SK-MEL-5 melanoma = tested on: SK-MEL-5 melanoma
MOLT-4 leukemia = tested on: MOLT-4 leukemia
UACC-257 melanoma = tested on: UACC-257 melanoma
CCRF-CEM leukemia = tested on: CCRF-CEM leukemia
M14 melanoma = tested on: M14 melanoma
UO-31 renal = tested on: UO-31 renal
HOP-92 NSCLC = tested on: HOP-92 NSCLC
SF-268 CNS = tested on: SF-268 CNS
HOP-62 NSCLC = tested on: HOP-62 NSCLC
SK-MEL-28 melanoma = tested on: SK-MEL-28 melanoma
SK-OV-3 ovarian = tested on: SK-OV-3 ovarian
786-0 renal = tested on: 786-0 renal
K-562 leukemia = tested on: K-562 leukemia
SN12C renal = tested on: SN12C renal
OVCAR-8 ovarian = tested on: OVCAR-8 ovarian
RPMI-8226 leukemia = tested on: RPMI-8226 leukemia
SF-295 CNS = tested on: SF-295 CNS
A549 NSCLC = tested on: A549 NSCLC
HCT-116 colon = tested on: HCT-116 colon
KM12 colon = tested on: KM12 colon
SK-MEL-2 melanoma = tested on: SK-MEL-2 melanoma
MALME-3M melanoma = tested on: MALME-3M melanoma
MDA-MB-435 = tested on: MDA-MB-435
T-47D breast = tested on: T-47D breast

COc1cc2nc3cc([N+](=O)[O-])ccc3c(NCCCNCC(C)(C)O)c2cc1OC
GI50 (BT-549 breast): 1750 nM
TGI (BT-549 breast): 3320 nM
GI50 (SNB-75 CNS): 300 nM
TGI (SNB-75 CNS): 1610 nM
GI50 (NCI-H460 lung): 299 nM
TGI (NCI-H460 lung): 1040 nM
GI50 (NCI-H522 lung): 181 nM
TGI (NCI-H522 lung): 425 nM
GI50 (COLO 205 colon): 176 nM
TGI (COLO 205 colon): 442 nM
GI50 (ACHN renal): 576 nM
TGI (ACHN renal): 6070 nM
GI50 (NCI-H23 lung): 196 nM
TGI (NCI-H23 lung): 543 nM
GI50 (SW-620 colon): 301 nM
TGI (SW-620 colon): 1510 nM
GI50 (UACC-62 melanoma): 214 nM
TGI (UACC-62 melanoma): 580 nM
GI50 (HS 578T breast): 511 nM
TGI (HS 578T breast): 5390 nM
GI50 (NCI-H226 lung): 771 nM
TGI (NCI-H226 lung): 2890 nM
GI50 (DU-145 prostate): 324 nM
TGI (DU-145 prostate): 1110 nM
GI50 (IGROV1 ovarian): 350 nM
TGI (IGROV1 ovarian): 1300 nM
GI50 (EKVX NSCLC): 1210 nM
TGI (EKVX NSCLC): 3970 nM
GI50 (OVCAR-5 ovarian): 465 nM
TGI (OVCAR-5 ovarian): 3390 nM
GI50 (OVCAR-3 ovarian): 330 nM
TGI (OVCAR-3 ovarian): 1030 nM
GI50 (HL-60(TB) leukemia): 694 nM
TGI (HL-60(TB) leukemia): 2950 nM
GI50 (TK-10 renal): 500 nM
TGI (TK-10 renal): 2490 nM
GI50 (NCI/ADR-RES ovarian): 10500 nM
TGI (NCI/ADR-RES ovarian): 25300 nM
GI50 (A498 renal): 216 nM
TGI (A498 renal): 1330 nM
GI50 (MDA-MB-231 breast): 222 nM
TGI (MDA-MB-231 breast): 900 nM
GI50 (MCF7 breast): 208 nM
TGI (MCF7 breast): 1160 nM
GI50 (SF-539 CNS): 505 nM
TGI (SF-539 CNS): 2580 nM
GI50 (LOX IMVI melanoma): 208 nM
TGI (LOX IMVI melanoma): 485 nM
GI50 (U251 CNS): 303 nM
TGI (U251 CNS): 1010 nM
GI50 (SR leukemia): 321 nM
TGI (SR leukemia): 3060 nM
GI50 (RXF 393 renal): 297 nM
TGI (RXF 393 renal): 1240 nM
GI50 (HT29 colon): 212 nM
TGI (HT29 colon): 586 nM
GI50 (PC-3 prostate): 322 nM
TGI (PC-3 prostate): 1110 nM
GI50 (HCT-15 colon): 1300 nM
TGI (HCT-15 colon): 8290 nM
GI50 (SNB-19 CNS): 303 nM
TGI (SNB-19 CNS): 1410 nM
GI50 (OVCAR-4 ovarian): 198 nM
TGI (OVCAR-4 ovarian): 777 nM
GI50 (HCC-2998 colon): 233 nM
TGI (HCC-2998 colon): 620 nM
GI50 (CAKI-1 renal): 1950 nM
TGI (CAKI-1 renal): 10200 nM
GI50 (SK-MEL-5 melanoma): 520 nM
TGI (SK-MEL-5 melanoma): 1760 nM
GI50 (MOLT-4 leukemia): 372 nM
TGI (MOLT-4 leukemia): 6670 nM
GI50 (UACC-257 melanoma): 1620 nM
TGI (UACC-257 melanoma): 3100 nM
GI50 (CCRF-CEM leukemia): 502 nM
TGI (CCRF-CEM leukemia): 3980 nM
GI50 (M14 melanoma): 352 nM
TGI (M14 melanoma): 1500 nM
GI50 (UO-31 renal): 1460 nM
TGI (UO-31 renal): 5140 nM
GI50 (HOP-92 NSCLC): 225 nM
TGI (HOP-92 NSCLC): 726 nM
GI50 (SF-268 CNS): 308 nM
TGI (SF-268 CNS): 1260 nM
GI50 (HOP-62 NSCLC): 169 nM
TGI (HOP-62 NSCLC): 708 nM
GI50 (SK-MEL-28 melanoma): 839 nM
TGI (SK-MEL-28 melanoma): 2500 nM
GI50 (SK-OV-3 ovarian): 506 nM
TGI (SK-OV-3 ovarian): 2590 nM
GI50 (786-0 renal): 277 nM
TGI (786-0 renal): 1220 nM
GI50 (K-562 leukemia): 299 nM
TGI (K-562 leukemia): 1680 nM
GI50 (SN12C renal): 232 nM
TGI (SN12C renal): 1110 nM
GI50 (OVCAR-8 ovarian): 304 nM
TGI (OVCAR-8 ovarian): 1820 nM
GI50 (RPMI-8226 leukemia): 565 nM
TGI (RPMI-8226 leukemia): 4010 nM
GI50 (SF-295 CNS): 501 nM
TGI (SF-295 CNS): 2430 nM
GI50 (A549 NSCLC): 320 nM
TGI (A549 NSCLC): 1170 nM
GI50 (HCT-116 colon): 299 nM
TGI (HCT-116 colon): 1040 nM
GI50 (KM12 colon): 410 nM
TGI (KM12 colon): 1600 nM
GI50 (SK-MEL-2 melanoma): 234 nM
TGI (SK-MEL-2 melanoma): 518 nM
GI50 (MALME-3M melanoma): 315 nM
TGI (MALME-3M melanoma): 872 nM
GI50 (MDA-MB-435): 400 nM
TGI (MDA-MB-435): 1550 nM
GI50 (T-47D breast): 237 nM
TGI (T-47D breast): 756 nM
